Patent US20090029983A1, “NOVEL HETEROCYCLIC COMPOUNDS HAVING ANTI-HBV ACTIVITY” (priority 2005, published 2009)

What follows are compounds tested on HBV (assay: HBV screening assay (viral DNA in baculovirus-HBV transduced HepG2 cells)). Conditions: Hepatitis B virus, HepG2, 72 h, read-out: EC50 (antiviral activity), HBV-transduced HepG2 cells, three days with compound, viral DNA by ELISA.
Assay type: cell-based
Experimental: HepG2 cells were transduced using a baculovirus to deliver the HBV genome essentially as previously described (Delaney et al. in Hepatology 1998; 28: 1134-1146). Transduced cells were cultured in supplemented EMEM media with 10% fetal bovine serum in a 5% CO2 incubator at 37° C. for three days in the presence of test compounds. The cells were lysed in a buffer containing 0.5% NP-40 and […] proteinase K. A solid-phase hybridization was performed to capture the viral DNA and to label the target DNA with Digoxigenin-labeled DNA probes. The viral DNA was detected by ELISA, using horseradish peroxidase-conjugated anti-digoxigenin antibodies.
The EC50 values were determined using ExcelFit software from the inhibition values of a titration curve for each compound. For CC50 determinations, the same titration of compounds was co-cultured with non-transduced HepG2 for three days under the conditions described above. The Promega CellTiter 96 Aqueous One Solution Cell Proliferation Assay was used to measure cell proliferation/viability. The CC50 values were determined using ExcelFit software from the inhibition values of the titration curve for each compound.
Work on `CC1CCc2c(nc3sc(C(N)=O)c(N)c3c2-c2cccs2)C1` (stereo not shown) [Compound 74, 3-Amino-7-methyl-4-thiophen-2-yl-5,6,7,8-tetrahydro-thieno[2,3-b]quinoline-2-carboxylic acid amide] yielded an EC50 of over 10 µM. Compound `CC1CCc2nc3sc(C(N)=O)c(N)c3c(-c3cccs3)c2C1` (stereo not shown) [Compound 72, 3-Amino-6-methyl-4-thiophen-2-yl-5,6,7,8-tetrahydro-thieno[2,3-b]quinoline-2-carboxylic acid amide] has an EC50 of over 10 µM. `Cc1ccc(-c2c3c(nc4sc(C(N)=O)c(N)c24)CCN(Cc2ccccc2)C3)o1` [Compound 33, 3-Amino-6-benzyl-4-(5-methyl-furan-2-yl)-5,6,7,8-tetrahydro-thieno[2,3-b][1,6]naphthyridine-2-carboxylic acidamide] gave an EC50 of over 10 µM. `CC(C)(C)OC(=O)N1Cc2nc3sc(C(N)=O)c(N)c3c(-c3cccs3)c2C1` [Compound 1, 3-Amino-6-tert-butyloxycarbonyl-4-thiophen-2-yl-6,7-dihydro-5H-1-thia-6,8-diaza-s-indacene-2-carboxylic acid amide] was tested, and the EC50 was over 10 µM. `NC(=O)c1sc2nc3c(c(-c4cccs4)c2c1N)CCCC3C1CCCCC1` (stereo not shown) [Compound 68, 3-Amino-8-cyclohexyl-4-thiophen-2-yl-5,6,7,8-tetrahydro-thieno[2,3-b]quinoline-2-carboxylic acid amide] showed an EC50 of over 10 µM. In the case of `CCC1CCc2nc3sc(C(N)=O)c(N)c3c(-c3cccs3)c2C1` (stereo not shown) [Compound 73, 3-Amino-6-ethyl-4-thiophen-2-yl-5,6,7,8-tetrahydro-thieno[2,3-b]quinoline-2-carboxylic acid amide], the EC50 is reported as over 10 µM. `NC(=O)c1sc2nc3c(c(-c4cccs4)c2c1N)CN(Cc1cccc(F)c1)C3` [Compound 23, 3-Amino-6-(3-fluoro-benzyl)-4-thipohen-2-yl-6,7-dihydro-5H-1-thia-6,8-diaza-s-indacene-2-carboxylic acid amide] gave an EC50 of over 10 µM. For `NC(=O)c1sc2nc3c(c(-c4cccs4)c2c1N)CCC3CC(=O)NC1CCCCC1` (stereo not shown) [Compound 51, 3-Amino-7-cyclohexylcarbamoylmethyl-4-thiophen-2-yl-6,7-dihydro-5H-cyclopenta[b]thieno[3,2-e]pyridine-2-carboxylic acid amide], the EC50 was over 10 µM. Work on `NC(=O)c1sc2nc3c(c(-c4cccs4)c2c1N)CN(CC1CCCCO1)C3` (stereo not shown) [Compound 4, 3-Amino-6-(tetrahydro-pyran-2-ylmethyl)-4-thiophen-2-yl-6,7-dihydro-5H-1-thia-6,8-diaza-s-indacene-2-carboxylic acid amide] yielded an EC50 of over 10 µM. `NC(=O)c1sc2nc3c(c(-c4cccs4)c2c1N)CN(CCCN1CCOCC1)C3` [Compound 27, 3-Amino-6-(3-morpholin-4-yl-propyl)-4-thiophen-2-yl-6,7-dihydro-5H-1-thia-6,8-diaza-s-indacene-2-carboxylic acid amide] gave an EC50 of over 10 µM. Compound `CC1CCc2c1nc1sc(C(N)=O)c(N)c1c2-c1cccs1` (stereo not shown) [Compound 37, 3-Amino-7-methyl-4-thiophen-2-yl-6,7-dihydro-5H-cyclopenta[b]thieno[3,2-e]pyridine-2-carboxylic acid amide] has an EC50 of under 1 µM. For `NC(=O)c1sc2nc3c(c(-c4cccs4)c2c1N)CCC3CC(=O)NC1CCC1` (stereo not shown) [Compound 50, 3-Amino-7-cyclobutylcarbamoylmethyl-4-thiophen-2-yl-6,7-dihydro-5H-cyclopenta[b]thieno[3,2-e]pyridine-2-carboxylic acid amide], the EC50 was over 10 µM. `Cc1ccc(NC(=S)N2Cc3nc4sc(C(N)=O)c(N)c4c(-c4cccs4)c3C2)cc1` [Compound 83, 3-Amino-4-thiophen-2-yl-6-p-tolylthiocarbamoyl-6,7-dihydro-5H-1-thia-6,8-diaza-s-indacene-2-carboxylic acidamide] was tested, and the EC50 was over 10 µM. With `CC(C)CN1Cc2nc3sc(C(N)=O)c(N)c3c(-c3cccs3)c2C1` [Compound 14, 3-Amino-6-isobutyl-4-thiophen-2-yl-6,7-dihydro-5H-1-thia-6,8-diaza-s-indacene-2-carboxylic acid amide] the EC50 was over 10 µM. `NC(=O)c1sc2nc3c(c(-c4ccc(Cl)cc4)c2c1N)C(=O)CCC3` [Compound 77, 3-Amino-4-(4-chloro-phenyl)-5-oxo-5,6,7,8-tetrahydro-thieno[2,3-b]quinoline-2-carboxylic acid amide] gave an EC50 of over 10 µM. `COC1CCCc2c1nc1sc(C(N)=O)c(N)c1c2-c1cccs1` (stereo not shown) [Compound 69, 3-Amino-8-methoxy-4-thiophen-2-yl-5,6,7,8-tetrahydro-thieno[2,3-b]quinoline-2-carboxylic acid amide] gave an EC50 of under 1 µM. `N#CCCC1CCCc2c1nc1sc(C(N)=O)c(N)c1c2-c1cccs1` (stereo not shown) [Compound 62, 3-Amino-8-(2-cyano-ethyl)-4-thiophen-2-yl-5,6,7,8-tetrahydro-thieno[2,3-b]quinoline-2-carboxylic acid amide] was tested, and the EC50 was over 10 µM. Work on `NC(=O)c1sc2nc3c(c(-c4cccs4)c2c1N)CN(C(=S)NCCCN1CCOCC1)C3` [Compound 94, 3-Amino-6-(3-morpholin-4-yl-propylthiocarbamoyl)-4-thiophen-2-yl-6,7-dihydro-5H-1-thia-6,8-diaza-s-indacene-2-carboxylic acid amide] yielded an EC50 of over 10 µM. For `NC(=O)c1sc2nc3c(c(-c4cccs4)c2c1N)CCC3CC(=O)NCc1ccc(C(F)(F)F)cc1` (stereo not shown) [Compound 47, 3-Amino-4-thiophen-2-yl-7-[(4-trifluoromethyl-benzylcarbamoyl)-methyl]-6,7-dihydro-5H-cyclopenta[b]thieno[3,2-e]pyridine-2-carboxylic acid amide], the EC50 was over 10 µM. `CCCCCCCC1CCc2c1nc1sc(C(N)=O)c(N)c1c2-c1cccs1` (stereo not shown) [Compound 60, 3-Amino-7-heptyl-4-thiophen-2-yl-6,7-dihydro-5H-cyclopenta[b]thieno[3,2-e]pyridine-2-carboxylic acid amide] was tested, and the EC50 was over 10 µM. `NC(=O)c1sc2nc3c(c(-c4cccs4)c2c1N)CCC3CC(=O)N1CCC(O)CC1` (stereo not shown) [Compound 52, 3-Amino-7-[2-(4-hydroxy-piperidin-1-yl)-2-oxo-ethyl]-4-thiophen-2-yl-6,7-dihydro-5H-cyclopenta[b]thieno[3,2-e]pyridine-2-carboxylic acid amide] showed an EC50 of over 10 µM. `COC(=O)c1ccc(NC(=S)N2Cc3nc4sc(C(N)=O)c(N)c4c(-c4cccs4)c3C2)cc1` [Compound 90, 4-[(3-Amino-2-carbaomyl-4-thiophen-2-yl-5,7-dihydro-1-thia-6,8-diaza-s-indacene-6-carbothioyl)-amino]benzoic acid methylester] showed an EC50 of over 10 µM. `NC(=O)c1sc2nc3c(c(-c4cccs4)c2c1N)CN(CCN1C(=O)c2ccccc2C1=O)C3` [Compound 19, 3-Amino-6-[2-(1,3-dioxo-1,3-dihydro-isoindol-2-yl)-ethyl]-4-thiophen-2-yl-6,7-dihydro-5H-1-thia-6,8-diaza-s-indacene-2-carboxylic acid amide] showed an EC50 of over 10 µM. `CC(C)CC1CCCc2c1nc1sc(C(N)=O)c(N)c1c2-c1cccs1` (stereo not shown) [Compound 63, 3-Amino-8-isobutyl-4-thiophen-2-yl-5,6,7,8-tetrahydro-thieno[2,3-b]quinoline-2-carboxylic acid amide] was tested, and the EC50 was 1 to 10 µM. Work on `CN1CCCC1CCNC(=O)CC1CCc2c1nc1sc(C(N)=O)c(N)c1c2-c1cccs1` (stereo not shown) [Compound 55, 3-Amino-7-{[2-(1-methyl-pyrrolidin-2-yl)-ethylcarbamoyl]-methyl}-4-thiophen-2-yl-6,7-dihydro-5H-cyclopenta[b]thieno[3,2-e]pyridine-2-carboxylic acid amide] yielded an EC50 of over 10 µM. `CC(C)(C)OC(=O)N1CCc2nc3sc(C(N)=O)c(N)c3c(-c3cccs3)c2C1` [Compound 32, 3-Amino-6-tert-butyloxycarbonyl-4-thiophen-2-yl-5,6,7,8-tetrahydro-thieno[2,3-b][1,6]naphthyridine-2-carboxylic acidamide] was tested, and the EC50 was over 10 µM. For `NC(=O)c1sc2nc3c(c(-c4cccs4)c2c1N)CCC3CC(=O)NCC(O)c1ccccc1` (stereo not shown) [Compound 39, 3-Amino-7-[(2-hydroxy-2-phenyl-ethylcarbamoyl)-methyl]-4-thiophen-2-yl-6,7-dihydro-5H-cyclopenta[b]thieno[3,2-e]pyridine-2-carboxylic acid amide], the EC50 was over 10 µM. For `NC(=O)c1sc2nc3c(c(-c4cccs4)c2c1N)CN(C(=S)NCC1CCCO1)C3` (stereo not shown) [Compound 80, 3-Amino-6-[(tetrahydro-furan-2-ylmethyl)-thiocarbamoyl]-4-thiophen-2-yl-6,7-dihydro-5H-1-thia-6,8-diaza-s-indacene-2-carboxylic acid amide], the EC50 was over 10 µM. `Cc1ccc(CNC(=O)CC2CCc3c2nc2sc(C(N)=O)c(N)c2c3-c2cccs2)o1` (stereo not shown) [Compound 43, 3-Amino-7-{[(5-methyl-furan-2-ylmethyl)-carbamoyl]-methyl}-4-thiophen-2-yl-6,7-dihydro-5H-cyclopenta[b]thieno[3,2-e]pyridine-2-carboxylic acid amide] was tested, and the EC50 was over 10 µM. Compound `CC(C)CCNC(=O)CC1CCc2c1nc1sc(C(N)=O)c(N)c1c2-c1cccs1` (stereo not shown) [Compound 48, 3-Amino-7-[(3-methyl-butylcarbamoyl)-methyl]-4-thiophen-2-yl-6,7-dihydro-5H-cyclopenta[b]thieno[3,2-e]pyridine-2-carboxylic acid amide] has an EC50 of over 10 µM.

Same assay, conditions: read-out: EC50 (antiviral activity); HBV-transduced HepG2 cells, three days with compound, viral DNA by ELISA
For `NC(=O)c1sc2nc3c(c(-c4cccs4)c2c1N)CN(C(=S)NCc1ccccc1)C3` [Compound 84, 3-Amino-6-benzylthiocarbamoyl-4-thiophen-2-yl-6,7-dihydro-5H-1-thia-6,8-diaza-s-indacene-2-carboxylic acid amide], the EC50 was 1 to 10 µM.
